In patent publication US20230330254A1 (Regeneron Pharmaceuticals, Inc., priority 2022, published 2023):
Where a SMILES comes first, the peptide text is derived from it. [ ]: non-standard residue; d: D form. The star is where a group is joined. Bip(2'-Et,4'-O(CH2)4NH2) = CCc1cc(OCCCCN)ccc1-c1ccc(C[C@H](N)C(=O)O)cc1; Malonyl(2,2-Me2,histaminyl) = CC(C)(C(=O)NCCc1cnc[nH]1)C(=O)*; Nva(5-(3,5-Me2Ph)) = Cc1cc(C)cc(CCC[C@H](N)C(=O)O)c1; Ala(1H-tetrazol-5-yl) = N[C@@H](Cc1nnn[nH]1)C(=O)O; αMePhe(2-F) = C[C@](N)(Cc1ccccc1F)C(=O)O

Key:
[1] = Plasma stability of payloads and linker-payloads, human plasma; format: in vitro ADME
In short: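 Pooled plasma, pH adjusted to 7.4±0.1 where needed, spiked to 2 μM compound (duplicate) and incubated at 37 °C. At each time point, protein was precipitated with ACN/MeOH stop solution containing internal standards; remaining compound quantified in supernatant by LC-MS/MS.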

[2] = Liver microsome stability; format: in vitro ADME, human
Procedure: To assess the in vitro ADME properties of the LP, microsomal stability assay was performed to determine intrinsic clearance, and plasma protein binding assay was performed to understand the distribution potential.

[3] = Plasma stability of payloads and linker-payloads, monkey plasma; format: in vitro ADME; settings: pooled plasma
Procedure: The plasma stability of payloads and linker payloads of the disclosure were measured. For the assay, pooled frozen plasma (human, mouse or monkey) was thawed in cold water or a 37° C. water bath prior to experiment. Plasma was centrifuged at 4000 rpm for 5 min if any clots were observed, they were subsequently removed. If required, the pH was adjusted to 7.4±0.1. For the preparation of compounds and positive controls, a 1 mM intermediate solution was prepared by diluting 10 μL of their stock solution with 90 μL DMSO; a 1 mM intermediate solution of the positive control (Propantheline) was prepared by diluting 10 μL of its stock solution with 90 μL ultrapure water. Subsequently, 100 μM dosing solution for each compound was prepared by diluting 20 μL of the intermediate solution (1 mM) with 180 μL 45% MeOH/H2O. 98 μL of plasma was spiked with 2 μL of dosing solution (100 μM) to achieve the final concentration of 2 μM in duplicate. Samples were then incubated at 37° C. in a water bath. […] At each time point, 400 μL of stop solution (200 ng/mL tolbutamide plus 200 ng/mL labetalol in 50% ACN/MeOH) was added to precipitate protein and mixed thoroughly. Sample plates were then centrifuged at 4,000 rpm for 10 min. An aliquot of supernatant (50 μL) was transferred from each well and mixed with 100 μL ultrapure water. The samples were then shaken at 800 rpm for approximately 10 min before submitting for LC-MS/MS analysis.

[4] = target: human GLP1R (Homo sapiens, UniProt P43220); experiment: Luciferase reporter assay, HEK293/CRE-Luc/hGLP1R (Example 17); format: cell-based; set-up: engineered to express full-length human GLP1R, cynomolgus GLP1R; expressed in transfected cells; host or cells: HEK293/CRE-Luc; settings: HEK293/CRE-Luc/hGLP1R; for EC50: payloads and linker-payloads, experiments A-E, M2361 repeated in each, read-out: EC50
Sequence of human GLP1R (P43220 24-463): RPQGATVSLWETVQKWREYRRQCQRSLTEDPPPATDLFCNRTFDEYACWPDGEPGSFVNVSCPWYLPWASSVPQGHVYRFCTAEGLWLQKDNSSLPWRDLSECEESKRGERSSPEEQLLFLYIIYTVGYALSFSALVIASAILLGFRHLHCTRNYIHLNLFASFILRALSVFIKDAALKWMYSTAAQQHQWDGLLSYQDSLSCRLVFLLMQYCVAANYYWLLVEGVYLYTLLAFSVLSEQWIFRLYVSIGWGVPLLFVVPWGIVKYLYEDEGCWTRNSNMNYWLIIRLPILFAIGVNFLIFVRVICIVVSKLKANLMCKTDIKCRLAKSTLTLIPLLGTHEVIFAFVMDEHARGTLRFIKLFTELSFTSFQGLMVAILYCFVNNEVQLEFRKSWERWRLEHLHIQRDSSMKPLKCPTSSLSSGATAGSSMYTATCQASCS
In short: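 HEK293 cells carrying a CRE-driven firefly luciferase reporter were exposed to 3-fold serial dilutions of payloads or linker-payloads (12 points, 0.2% DMSO final) for 4–6 h, then luminescence was read. EC50 came from a four-parameter logistic fit; S/N is top RLU over untreated wells, and relative potency and S/N are referenced to M2361.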

[5] = ATDCs and references (Table 27)
[6] = highest RLU / RLU of untreated wells
[7] = relative to M2361 of the same experiment

Structure (SMILES) | half-life at 2 µM ([1]; pooled plasma, pH 7.4, Table 5C, read-out: Plasma Stability Human T½) | half-life at 2 µM ([1]; pooled plasma, pH 7.4, tested time C (3 days), 2 μM, 37° C., read-out: Human plasma stability assay T½ (converted)) | CLint(mic) ([2]; Table 7) | CLint scaled ([2]; human, liver microsomes, Table 5C, read-out: Human Liver microsome CLint(liver)) | microsomal CLint ([2]; human, liver microsomes, Table 5C, read-out: Human Liver microsome CLint(mic)) | half-life ([2]; human, liver microsomes, Table 5C, read-out: Human Liver microsome T1/2) | half-life at 2 µM ([3]; pH 7.4, Monkey, assay time 3 days, Table 5B, read-out: plasma stability T½) | half-life at 2 µM ([3]; pH 7.4, Table 5A, monkey plasma, tested time C (3 days), read-out: plasma stability T½ (hr), monkey) | half-life at 2 µM ([3]; pH 7.4, Table 5C, read-out: Plasma Stability Monkey T1/2) | Relative Potency (% M2361 EC50) [4, 5] | Relative Signal:Noise (% M2361) [4, 5] | S/N [4, 5] | S/N [4, 6] | EC50 [4] | Relative Potency (% M2361 EC50) [4, 7] | Relative Signal:Noise (% M2361) [4, 7] | half-life at 2 µM ([1]; plasma, pH 7.4, tested time A (1 day per footnote), 2 μM, 37° C., read-out: Human plasma stability assay T½ (converted))
CCc1cc(OCCCCn2cc(COCCOCCOCCOCCOCCOCCOCCOCCN)nn2)ccc1-c1ccc(C[C@H](NC(=O)[C@H](CC(=O)O)NC(=O)[C@H](CO)NC(=O)[C@@H](NC(=O)C(C)(Cc2ccccc2F)NC(=O)[C@@H](NC(=O)CNC(=O)[C@H](Cc2nn[nH]n2)NC(=O)C(C)(C)C(=O)NCCc2cnc[nH]2)[C@@H](C)O)[C@@H](C)O)C(=O)N[C@@H](CCCc2cc(C)cc(C)c2)C(N)=O)cc1 (stereo partly drawn) [LP11, NH2-PEG8-triazole-P8] | > 7 days | > 7.23 days | <9.6 µL/min/mg | < 8.6 mL/min/kg | < 9.6 µL/min/mg | > 145 min | > 49.4 h | > 49.4 h | > 48 h |  |  |  |  |  |  |  | 
CCc1cc(OCCCCn2cc(COCCOCCOCCOCCOCCOCCOCCOCCN)nn2)ccc1-c1ccc(C[C@H](NC(=O)[C@H](CC(=O)O)NC(=O)[C@H](CO)NC(=O)[C@@H](NC(=O)[C@](C)(Cc2ccccc2F)NC(=O)[C@@H](NC(=O)CNC(=O)[C@H](Cc2nn[nH]n2)NC(=O)C(C)(C)C(=O)NCCc2cnc[nH]2)[C@@H](C)O)[C@@H](C)O)C(=O)N[C@@H](CCCc2cc(C)cc(C)c2)C(N)=O)cc1 [M3190] |  |  |  |  |  |  |  |  |  | 44.0% | 96.4% | 62.0 | 74.5 | 0.0161 nM | 33.1% | 113.3% | 
CCc1cc(OCCCCN)ccc1-c1ccc(C[C@H](NC(=O)[C@H](CC(=O)O)NC(=O)[C@H](CO)NC(=O)[C@@H](NC(=O)[C@](C)(Cc2ccccc2F)NC(=O)[C@@H](NC(=O)CNC(=O)[C@H](Cc2nn[nH]n2)NC(=O)C(C)(C)C(=O)NCCc2cnc[nH]2)[C@@H](C)O)[C@@H](C)O)C(=O)N[C@@H](CCCc2cc(C)cc(C)c2)C(N)=O)cc1 [P9, (8S,14S,17S,20S,23S,26S)-8-((2H-tetrazol-5-yl)methyl)-26-(((S)-1-(((S)-1-amino-5-(3,5-dimethylphenyl)-1-oxopentan-2-yl)amino)-3-(4′-(4-aminobutoxy)-2′-ethyl-[1,1′-biphenyl]-4-yl)-1-oxopropan-2-yl)carbamoyl)-17-(2-fluorobenzyl)-14,20-bis((R)-1-hydroxyethyl)-23-(hydroxymethyl)-1-(1H-imidazol-5-yl)-5,5,17-trimethyl-4,6,9,12,15,18,21,24-octaoxo-3,7,10,13,16,19,22,25-octaazaoctacosan-28-oic acid] ({Malonyl(2,2-Me2,histaminyl)}-[Ala(1H-tetrazol-5-yl)]GT[αMePhe(2-F)]TSD[Bip(2'-Et,4'-O(CH2)4NH2)][Nva(5-(3,5-Me2Ph))]-NH2) |  |  |  |  |  |  |  |  |  |  |  |  | 75.2 | 0.00397 nM | 133.8% | 114.3% | > 2.41 days
